Data on 10 molecules can be found in patent US20240269298A1, “PHOSPHONYL DERIVATIVE, AND COMPOSITION AND PHARMACEUTICAL APPLICATION THEREOF” (XIZANG HAISCO PHARMACEUTICAL CO., LTD., priority 2021, published 2024).

The subject of data set [1] is NCI-H1975 EGFR-L858R-T790M-C797S cells. Description: Inhibitory activity on proliferation of NCI-H1975 EGFR-L858R-T790M-C797S cells (CellTiter-Glo, 72 h). The format is cell-based. The note with it: Homo sapiens. As for the experimental part:
NCI-H1975 EGFR-L858R-T790M-C797S cells were cultured in an incubator at 37° C. with 5% CO2, and the culture medium was RPMI1640+10% FBS+100 μg/mL hygromycin. The cells in the logarithmic phase were collected, and the cell suspension was adjusted to an appropriate concentration with a hygromycin-free culture medium, and then plated on a 96-well plate at a density of 1500 cells/well and a volume of 90 μL. 10 μL of the compounds at different concentrations were added, and a vehicle control group (cells plus DMSO) was provided, wherein the concentration of DMSO was 0.1%. The cell culture plate was cultured in an incubator at 37° C. with 5% CO2 for 72 hours. After the incubation was completed, according to operation instructions for a CellTiter-Glo kit (Promega, G7572), 50 μL of CTG solution, which was already pre-melted and equilibrated to room temperature, was added to each well, and the mixtures were uniformly mixed for 2 min using a microplate shaker. The plate was placed at room temperature for 10 min, and then […] signal values were measured using a microplate reader (Envision 2104). […] was processed based on formula (2), and using the GraphPad Prism 5.0 software and nonlinear regression model, S-shaped dose-survival curves were plotted, and IC50 values were calculated. wherein Vsample was the readout of the drug-treated group, and Vvehicle control was the readout of the control group.
A general note: In ATP-based viability assays light output follows the ATP content of the culture.

Data set [2] relates to NCI-H1975 (EGFR-L858R-T790M) cells. As to the kind of experiment: Inhibitory activity on proliferation of NCI-H1975 (EGFR-L858R-T790M) cells (CTG, 72 h). The note with it: Homo sapiens. The format is cell-based. Summed up:
(§1)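 Cells plated at 1000/well (NCI-H1975, RPMI1640+10% FBS) or 3000/well (A431, DMEM+10% FBS), dosed next day with compounds (0.1% DMSO final) for 72 h at 37 °C, 5% CO2. Viability by CTG luminescence, normalised to vehicle control; IC50 from nonlinear-regression dose-survival curves.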

For data set [3], the system named is A431 (EGFR-WT) cells. As to the kind of experiment: Inhibitory activity on proliferation of A431 (EGFR-WT) cells (CTG, 72 h). The format is cell-based. The note with it: Homo sapiens, A-431. Summed up:
as §1

Data set [4] is described as follows: Pharmacokinetic test in mice. The format is in vivo. The note with it: male, ICR, mouse, po, administration i.g. (10 mg/kg), plasma. The method, then: Test objective: In this experiment, a single dose of test compounds was administered to ICR mice intravenously and intragastrically, the concentrations of the test compounds in plasma of mice were measured, and the pharmacokinetic characteristics and bioavailability of the test compounds in mice were evaluated.
Experimental animals: male ICR mice, 20-25 g, purchased from BEIJING HFK BIOSCIENCE CO., LTD. with the laboratory animal production license number of SCXK (JING) 2019-0008; or purchased from CHENGDU DDOSSY EXPERIMENTAL ANIMALS CO., LTD. (SCXK (CHUAN) 2020-030); or purchased from HUNAN SJA LABORATORY ANIMAL CO., LTD. (SCXK (XIANG) 2019-0004).
Experimental method: on the day of the experiment, ICR mice were randomly grouped according to their body weights. The mice were fasted with water available for 12 to 14 hours one day before the administration, and were fed 4 hours after the administration.
Sampling: before and after the administration, blood was taken from the orbits of the mice under isoflurane anesthesia, and placed in an EDTAK2 centrifuge tube. Centrifugation was carried out at 5000 rpm at 4° C. for 10 min, and the plasma was collected.
Time points for plasma collection in G1&G2 groups: 0, 5 min, 15 min, 30 min, 1h, 2h, 4h, 6h, 8h, and 24 h; • time points for plasma collection in G3 group: 0, 5 min, 15 min, 30 min, 1 h, 2 h, 4 h, 6h, 8h, and 24 h; • before analysis and detection, all samples were stored at −80° C. The samples were analyzed quantitatively by LC-MS/MS.

Where [5] appears, read: read-out: IC50 (value in brackets).

Like-named read-outs stand apart in the source and are kept apart here.

For `COc1cc(N2CCC3(CCN(CC4CCN(c5ccc6c(c5)C(=O)N(C5CCC(=O)NC5=O)C6=O)CC4)CC3)CC2)c(-c2cnn(C)c2)cc1Nc1ncc(Cl)c(Nc2ccc3nccnc3c2P(C)(C)=O)n1` (stereo not drawn) [Compound 9, 5-(4-((9-(4-((5-chloro-4-((5-(dimethylphosphoryl)quinoxalin-6-yl)amino)pyrimidin-2-yl)amino)-5-methoxy-2-(1-methyl-1H-pyrazol-4-yl)phenyl)-3,9-diazaspiro[5.5]undecan-3-yl)methyl)piperidin-1-yl)-2-(2,6-dioxopiperidin-3-yl)isoindoline-1,3-dione], the IC50 (in general, the concentration needed to halve the response being measured) was less than 0.2 µM in data set [1] (read-out: IC50 (class symbol)), 0.039 µM in data set [1] (read-out: IC50 (value)), less than 0.1 µM in data set [2] (read-out: IC50 (class symbol)) and 0.014 µM in data set [2] (setting [5]).
With `COc1cc(N2CCC(N3CCN(CC4CCN(c5ccc6c(c5)C(=O)N(C5CCC(=O)NC5=O)C6=O)CC4)CC3)CC2)c(-c2cnn(C)c2)cc1Nc1ncc(Br)c(Nc2ccc3ccccc3c2P(C)(C)=O)n1` (stereo not drawn) [Compound 71, 5-(4-((4-(1-(4-((5-bromo-4-((1-(dimethylphosphoryl)naphthalen-2-yl)amino)pyrimidin-2-yl)amino)-5-methoxy-2-(1-methyl-1H-pyrazol-4-yl)phenyl)piperidin-4-yl)piperazin-1-yl)methyl)piperidin-1-yl)-2-(2,6-dioxopiperidin-3-yl)isoindoline-1,3-dione], the IC50 in data set [3] is no less than 10 µM; in data set [2] (read-out: IC50 (class symbol)), less than 0.1 µM; in data set [2] (setting [5]), 0.029 µM. In addition, the AUC(0-t) (in general, the area under the concentration-time curve up to a stated or last time point) in data set [4] worked out at 24.7 µg·h/mL.
In the same order, the values of `COc1cc(N2CCC(N3CCN(CC4CCN(c5ccc6c(c5)C(=O)N(C5CCC(=O)NC5=O)C6=O)C4)CC3)CC2)c(-c2cnn(C)c2)cc1Nc1ncc(Br)c(Nc2ccc(-c3ccccc3)cc2P(C)(C)=O)n1` (stereo not drawn) [Compound 76, 5-(3-((4-(1-(4-((5-bromo-4-((3-(dimethylphosphoryl)-[1,1′-biphenyl]-4-yl)amino)pyrimidin-2-yl)amino)-5-methoxy-2-(1-methyl-1H-pyrazol-4-yl)phenyl)piperidin-4-yl)piperazin-1-yl)methyl)pyrrolidin-1-yl)-2-(2,6-dioxopiperidin-3-yl)isoindoline-1,3-dione] are no less than 10 µM, less than 0.1 µM, 0.031 µM and 19.6 µg·h/mL.
Consider `COc1cc(N2CCC(N3CCN(C4CC5(CCN(c6ccc7c(c6)C(=O)N(C6CCC(=O)NC6=O)C7=O)CC5)C4)CC3)CC2)c(-c2cnn(C)c2)cc1Nc1ncc(Cl)c(Nc2ccc(-c3ccccc3)cc2P(C)(C)=O)n1` (stereo not drawn) [Compound 91], for which the 50% inhibitory concentration (IC50) in data set [3] is no less than 10 µM; in data set [2] (read-out: IC50 (class symbol)) it was less than 0.1 µM; in data set [2] (setting [5]), 0.078 µM. Moreover, in data set [4], the AUC(0-t) is 7.58 µg·h/mL.
For `COc1cc(N2CCC(N3CCN(CC4CCN(c5ccc6c(c5)C(=O)N(C5CCC(=O)NC5=O)C6=O)CC4)CC3)CC2)c(-c2cnn(C)c2)cc1Nc1ncc(Br)c(Nc2ccc(C)c(C)c2P(C)(C)=O)n1` (stereo not drawn) [Compound 73, 5-(4-((4-(1-(4-((5-bromo-4-((2-(dimethylphosphoryl)-3,4-dimethylphenyl)amino)pyrimidin-2-yl)amino)-5-methoxy-2-(1-methyl-1H-pyrazol-4-yl)phenyl)piperidin-4-yl)piperazin-1-yl)methyl)piperidin-1-yl)-2-(2,6-dioxopiperidin-3-yl)isoindoline-1,3-dione], the IC50 in data set [3] was no less than 10 µM; in data set [2] (read-out: IC50 (class symbol)), less than 0.1 µM; in data set [2] (setting [5]), 0.026 µM. The AUC(0-t) in data set [4] turned out to be 13.7 µg·h/mL.
With `COc1cc(N2CCN(c3ccc4c(c3)C(=O)N(C3CCC(=O)NC3=O)C4=O)CC2)c(-c2cnn(C)c2)cc1Nc1ncc(Br)c(Nc2ccc(-c3ccccc3)cc2P(C)(C)=O)n1` (stereo not drawn) [Compound 80, 5-(4-(4-((5-bromo-4-((3-(dimethylphosphoryl)-[1,1′-biphenyl]-4-yl)amino)pyrimidin-2-yl)amino)-5-methoxy-2-(1-methyl-1H-pyrazol-4-yl)phenyl)piperazin-1-yl)-2-(2,6-dioxopiperidin-3-yl)isoindoline-1,3-dione], the figures for the IC50 in data set [3], in data set [2] (read-out: IC50 (class symbol)) and in data set [2] (setting [5]) were no less than 10 µM, 0.1 to 0.5 µM and 0.129 µM, respectively. For the same molecule, the AUC – broadly, concentration integrated over time – in data set [4] amounted to 81.9 µg·h/mL. In data set [4], the half-life (usually the time needed for the level to fall by half in the phase considered) is 10.4 h.
As to `COc1cc(N2CCC(N3CCN(CC4CCN(c5cc6c(cc5F)C(=O)N(C5CCC(=O)NC5=O)C6=O)CC4)CC3)CC2)c(-c2cnn(C)c2)cc1Nc1ncc(Br)c(Nc2ccc(-c3ccccc3)cc2P(C)(C)=O)n1` (stereo not drawn) [Compound 87, 5-(4-((4-(1-(4-((5-bromo-4-((3-(dimethylphosphoryl)-[1,1′-biphenyl]-4-yl)amino)pyrimidin-2-yl)amino)-5-methoxy-2-(1-methyl-1H-pyrazol-4-yl)phenyl)piperidin-4-yl)piperazin-1-yl)methyl)piperidin-1-yl)-2-(2,6-dioxopiperidin-3-yl)-6-fluoroisoindoline-1,3-dione], the IC50 was no less than 10 µM in data set [3], less than 0.1 µM in data set [2] (read-out: IC50 (class symbol)) and 0.045 µM in data set [2] (setting [5]). Besides, in data set [4], the area under the curve AUC(0-t) turned out to be 2.34 µg·h/mL.
Taken in the same sequence, the figures for `COc1cc(N2CCC(N3CCN(CC4CCN(c5ccc6c(c5)C(=O)N(C5CCC(=O)NC5=O)C6=O)CC4)CC3)CC2)c(-c2cnn(C)c2)cc1Nc1ncc(Cl)c(Nc2ccc3ccccc3c2P(C)(C)=O)n1` (stereo not drawn) [Compound 72, 5-(4-((4-(1-(4-((5-chloro-4-((1-(dimethylphosphoryl)naphthalen-2-yl)amino)pyrimidin-2-yl)amino)-5-methoxy-2-(1-methyl-1H-pyrazol-4-yl)phenyl)piperidin-4-yl)piperazin-1-yl)methyl)piperidin-1-yl)-2-(2,6-dioxopiperidin-3-yl)isoindoline-1,3-dione] were no less than 10 µM, less than 0.1 µM, 0.031 µM and 16.4 µg·h/mL.
As to `COc1cc(N2CCC3(CCN(c4ccc5c(c4)C(=O)N(C4CCC(=O)NC4=O)C5=O)CC3)CC2)c(-c2cnn(C)c2)cc1Nc1ncc(Br)c(Nc2ccc(F)cc2P(C)(C)=O)n1` (stereo not drawn) [Compound 163, 5-(9-(4-((5-bromo-4-((2-(dimethylphosphoryl)-4-fluorophenyl)amino)pyrimidin-2-yl)amino)-5-methoxy-2-(1-methyl-1H-pyrazol-4-yl)phenyl)-3,9-diazaspiro[5.5]undecan-3-yl)-2-(2,6-dioxopiperidin-3-yl)isoindoline-1,3-dione], the figures for the 50% inhibitory concentration (IC50) in data set [3], in data set [2] (read-out: IC50 (class symbol)) and in data set [2] (setting [5]) were no less than 10 µM, less than 0.1 µM and 0.076 µM, respectively. The molecule further showed an area under the curve (AUC) in data set [4] of 93.1 µg·h/mL. For the same molecule, the half-life in data set [4] is 6.68 h.
As for `COc1cc(N2CCC(CN3CCC4(CC3)CCN(c3ccc5c(c3)C(=O)N(C3CCC(=O)NC3=O)C5=O)CC4)CC2)c(-c2cnn(C)c2)cc1Nc1ncc(Br)c(Nc2ccc(-c3ccccc3F)cc2P(C)(C)=O)n1` (stereo not drawn) [Compound 95, 5-(9-((1-(4-((5-bromo-4-((3-(dimethylphosphoryl)-2′-fluoro-[1,1′-biphenyl]-4-yl)amino)pyrimidin-2-yl)amino)-5-methoxy-2-(1-methyl-1H-pyrazol-4-yl)phenyl)piperidin-4-yl)methyl)-3,9-diazaspiro[5.5]undecan-3-yl)-2-(2,6-dioxopiperidin-3-yl)isoindoline-1,3-dione], the IC50 in data set [3] is no less than 10 µM; in data set [2] (read-out: IC50 (class symbol)) it was less than 0.1 µM; in data set [2] (setting [5]), 0.049 µM. In data set [4], this molecule gave an area under the curve AUC(0-t) of 20.8 µg·h/mL.
